Reference: ChEMBL document CHEMBL3217476, “Binding region and interaction properties of sulfoquinovosylacylglycerol (SQAG) with human vascular endothelial growth factor 165 revealed by biosensor-based assays” (Medchemcomm, 2011)
The source made the active and inactive calls. The calls are words filed in the database; no cut-off is given here.

What was measured:
[1] = target: T1, Vascular endothelial growth factor A, long form (Homo sapiens) (UniProt P15692); experiment: Binding affinity to His-tagged human recombinant full length VEGF165 (amino acid residues A1 to R165) expressed in Escherichia coli BL21 (DE3) cells at 1.25 to 20 uM by surface plasmon resonance assay
T1 sequence (whole entry): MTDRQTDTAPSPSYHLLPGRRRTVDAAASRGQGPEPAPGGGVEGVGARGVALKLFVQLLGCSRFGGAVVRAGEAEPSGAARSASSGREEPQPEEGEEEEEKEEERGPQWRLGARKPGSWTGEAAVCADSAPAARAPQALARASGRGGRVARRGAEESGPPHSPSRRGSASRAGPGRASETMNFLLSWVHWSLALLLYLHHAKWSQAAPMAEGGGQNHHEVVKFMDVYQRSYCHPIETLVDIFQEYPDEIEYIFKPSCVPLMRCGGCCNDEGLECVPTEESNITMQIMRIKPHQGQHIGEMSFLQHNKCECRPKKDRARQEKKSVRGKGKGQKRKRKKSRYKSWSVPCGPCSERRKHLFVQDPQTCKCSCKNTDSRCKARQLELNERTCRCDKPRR

[2] = target: T1, Vascular endothelial growth factor A, long form (Homo sapiens); experiment: Binding affinity to His-tagged human recombinant full length VEGF165 (amino acid residues A1 to R165) expressed in Escherichia coli BL21 (DE3) cells at 0.125 to 2 uM by surface plasmon resonance assay
[3] = target: T2, Vascular endothelial growth factor A, long form (Homo sapiens, UniProt P15692); experiment: Binding affinity to His-tagged human recombinant full length VEGF165 (amino acid residues A1 to R165) expressed in Escherichia coli BL21 (DE3) cells by surface plasmon resonance assay
T2 sequence (P15692 whole entry): T1 sequence (whole entry)

[4] = target: T1, Vascular endothelial growth factor A, long form (Homo sapiens); experiment: Inhibition of human VEGF165 heparin binding domain (amino acid residues A111 to R165) expressed in T7 phage/NRP1 interaction assessed as rescued phage titer ratio of del2 T7 phage particles at 10 uM preincubated with del2 T7 phage particles by QCM sensorgram analysis
[5] = system: Vascular endothelial growth factor A, long form (Homo sapiens), P15692 [UNDEFINED MUTATION]; experiment: Binding affinity to His-tagged human recombinant truncated del3 VEGF165 (amino acid residues A111 to T142) expressed in Escherichia coli BL21 (DE3) cells at 0.125 to 2 uM by surface plasmon resonance assay
[6] = target: Vascular endothelial growth factor A, long form (Homo sapiens, UniProt P15692, EX4DEL); experiment: Binding affinity to His-tagged human recombinant truncated del4 VEGF165 (amino acid residues C137 to R165) expressed in Escherichia coli BL21 (DE3) cells by surface plasmon resonance assay
[7] = target: Ephrin type-B receptor 2 (Homo sapiens) (UniProt P29323); experiment: Binding affinity to human EphB2 (amino acid residues V27 to K458) at 0.125 to 2 uM by surface plasmon resonance assay
[8] = target: Protein jagged-1 (Homo sapiens) (UniProt P78504); experiment: Binding affinity to human Jagged-1 (amino acid residues S32 to S1046) at 0.125 to 2 uM by surface plasmon resonance assay
[9] = target: T1, Vascular endothelial growth factor A, long form (Homo sapiens); experiment: Binding affinity to human VEGF165 heparin binding domain (amino acid residues A111 to R165) expressed in T7 phage assessed as increase in emergence ratio of del2 T7 phage particles from host Escherichia coli BLT5615 cells by QCM sensorgram analysis; type: cell-based
[10] = species: Homo sapiens; experiment: Binding affinity to human PDGF-BB (amino acid residues S1 to T110) at 0.125 to 2 uM by surface plasmon resonance assay
[11] = target: Pro-epidermal growth factor (Homo sapiens) (UniProt P01133); experiment: Binding affinity to human EGF (amino acid residues N1 to R53) at 0.125 to 2 uM by surface plasmon resonance assay
[12] = target: Transforming growth factor beta-2 proprotein (Homo sapiens) (UniProt P61812); experiment: Binding affinity to human TGFbeta2 (amino acid residues A1 to S112) at 0.125 to 2 uM by surface plasmon resonance assay
[13] = species: Homo sapiens; experiment: Binding affinity to human FGFR2 alpha (amino acid residues R22 to E378) at 0.125 to 2 uM by surface plasmon resonance assay
[14] = target: Angiopoietin-1 (Homo sapiens) (UniProt Q15389); experiment: Binding affinity to human Ang-1 (amino acid residues N21 to F496) at 0.125 to 2 uM by surface plasmon resonance assay
[15] = target: T1, Vascular endothelial growth factor A, long form (Homo sapiens); experiment: Binding affinity to human VEGF165 C-terminal fragment of heparin binding domain (amino acid residues C137 to R165) expressed in T7 phage assessed as increase in emergence ratio of del4 T7 phage particles from host Escherichia coli BLT5615 cells by QCM sensorgram analysis; type: cell-based
[16] = system: Vascular endothelial growth factor A, long form (Homo sapiens), P15692 [UNDEFINED MUTATION]; experiment: Binding affinity to His-tagged human recombinant truncated del1 VEGF165 (amino acid residues A1 to R110) expressed in Escherichia coli BL21 (DE3) cells at 0.125 to 2 uM by surface plasmon resonance assay
[17] = target: Neurogenic locus notch homolog protein 1 (Homo sapiens) (UniProt P46531); experiment: Binding affinity to human Notch-1 (amino acid residues A19 to Q526) at 0.125 to 2 uM by surface plasmon resonance assay
[18] = target: Insulin-like growth factor 1 (Homo sapiens) (UniProt P05019); experiment: Binding affinity to human IGF-1 (amino acid residues G49 to A118) at 0.125 to 2 uM by surface plasmon resonance assay
[19] = species: Homo sapiens; experiment: Binding affinity to human sDLL-4 (amino acid residues S1 to P498) at 0.125 to 2 uM by surface plasmon resonance assay
[20] = target: Fibroblast growth factor 1 (Homo sapiens) (UniProt P05230); experiment: Binding affinity to human FGF1 (amino acid residues M1 to D141) at 0.125 to 2 uM by surface plasmon resonance assay
[21] = target: T1, Vascular endothelial growth factor A, long form (Homo sapiens); experiment: Inhibition of human VEGF165 heparin binding domain (amino acid residues A111 to R165) expressed in T7 phage/NRP1 interaction assessed as rescued phage titer ratio of del2 T7 phage particles at 1 uM preincubated with del2 T7 phage particles by QCM sensorgram analysis
[22] = target: Ephrin type-B receptor 4 (Homo sapiens) (UniProt P54760); experiment: Binding affinity to human EphB4 (amino acid residues L16 to A539) at 0.125 to 2 uM by surface plasmon resonance assay
[23] = target: Bone morphogenetic protein receptor type-2 (Homo sapiens) (UniProt Q13873); experiment: Binding affinity to human BMPR2 (amino acid residues A26 to I151) at 0.125 to 2 uM by surface plasmon resonance assay
[24] = target: Neuropilin-1 (Homo sapiens) (UniProt O14786); experiment: Binding affinity to human NRP1 (amino acid residues M1 to K644) at 0.125 to 2 uM by surface plasmon resonance assay
[25] = target: DNA polymerase lambda (Homo sapiens) (UniProt Q9UGP5); experiment: Binding affinity to human DNA polymerase lambda (amino acid residues M1 to R95) by surface plasmon resonance assay
[26] = target: Epidermal growth factor receptor (Homo sapiens) (UniProt P00533); experiment: Binding affinity to human EGFR (amino acid residues L25 to S645) at 0.125 to 2 uM by surface plasmon resonance assay
[27] = target: Vascular endothelial growth factor A, long form (Homo sapiens, UniProt P15692, EX2DEL); experiment: Binding affinity to His-tagged human recombinant truncated del2 VEGF165 (amino acid residues A111 to R165) expressed in Escherichia coli BL21 (DE3) cells by surface plasmon resonance assay
[28] = target: Angiopoietin-1 receptor (Homo sapiens) (UniProt Q02763); experiment: Binding affinity to human Tie-2 (amino acid residues A23 to K745) at 0.125 to 2 uM by surface plasmon resonance assay
[29] = target: Insulin-like growth factor 1 receptor (Homo sapiens) (UniProt P08069); experiment: Binding affinity to human IGF-1 receptor (amino acid residues E31 to N932) at 0.125 to 2 uM by surface plasmon resonance assay
[30] = target: Vascular endothelial growth factor receptor 2 (Homo sapiens) (UniProt P35968); experiment: Binding affinity to human VEGFR2 (amino acid residues A20 to E764) at 0.125 to 2 uM by surface plasmon resonance assay
[31] = target: Platelet-derived growth factor receptor beta (Mus musculus) (UniProt P05622); experiment: Binding affinity to GST-fused mouse PDGFRB (amino acid residues L33 to E133) at 0.125 to 2 uM by surface plasmon resonance assay
[32] = target: TGF-beta receptor type-2 (Homo sapiens) (UniProt P37173); experiment: Binding affinity to human TGFbetaR2 (amino acid residues M1 to D159) at 0.125 to 2 uM by surface plasmon resonance assay
[33] = target: T1, Vascular endothelial growth factor A, long form (Homo sapiens); experiment: Binding affinity to human VEGF121 (amino acid residues A1 to R121) at 0.125 to 2 uM by surface plasmon resonance assay
[34] = target: Fibroblast growth factor 2 (Homo sapiens) (UniProt P09038); experiment: Binding affinity to human FGF2 (amino acid residues A1 to S154) at 0.125 to 2 uM by surface plasmon resonance assay
[35] = target: Bone morphogenetic protein 2 (Homo sapiens) (UniProt P12643); experiment: Binding affinity to human BMP-2 (amino acid residues M1 to R115) at 0.125 to 2 uM by surface plasmon resonance assay
[36] = target: Vascular endothelial growth factor receptor 1 (Homo sapiens) (UniProt P17948); experiment: Binding affinity to human VEGFR1 (amino acid residues S27 to I328) at 0.125 to 2 uM by surface plasmon resonance assay

CCCCCCCCCC(=O)OCC(O)CO[C@H]1O[C@H](CS(=O)(=O)O)[C@@H](O)[C@H](O)[C@H]1O (stereo not given in full)
Activity [1]: inactive

O=S(=O)(O)C[C@H]1O[C@@H](OCC(O)CO)[C@H](O)[C@@H](O)[C@@H]1O (stereo not given in full)
Activity [2]: inactive

CCCCCCCCCCCCCCCCCC(=O)OCC(O)CO[C@H]1O[C@H](CS(=O)(=O)O)[C@@H](O)[C@H](O)[C@H]1O (stereo not given in full)
Kd [3]: 18000 nM | inhibition [4]: Active

CCCCCCCCCCCCCCCCCC(=O)OCC(CO[C@@H]1O[C@H](CO)[C@@H](O)[C@H](O)[C@H]1O)OC(=O)CCCCCCCCCCCCCCCCC (stereo not given in full)
Activity [2]: inactive

CCCCCCCCCCCCCCCCCC(=O)OCC(CO[C@@H]1O[C@H](CS(=O)(=O)O)[C@@H](O)[C@H](O)[C@H]1O)OC(=O)CCCCCCCCCCCCCCCCC (stereo not given in full)
Activity [5]: inactive | Kd [6]: 1400 nM | Activity [7]: inactive | Activity [8]: inactive | Activity [9]: Active | Activity [10]: inactive | Activity [11]: inactive | Activity [12]: inactive | Activity [13]: inactive | Activity [14]: inactive | Activity [15]: Active | Activity [16]: inactive | Activity [17]: inactive | Activity [18]: inactive | Activity [19]: inactive | Activity [20]: inactive | inhibition [21]: Active | Activity [22]: inactive | Activity [23]: inactive | Activity [24]: inactive | Kd [25]: 9.9 nM | Activity [26]: inactive | Kd [27]: 0.025 nM | Activity [28]: inactive | Activity [29]: inactive | Activity [30]: inactive | Activity [31]: inactive | Kd [3]: 0.046 nM | Activity [32]: inactive | Activity [33]: inactive | Activity [34]: inactive | Activity [35]: inactive | Activity [36]: inactive

CCCCCCCCCCCCCCCCCC(=O)OCC(CO[C@H]1O[C@H](CS(=O)(=O)O)[C@@H](O)[C@H](O)[C@H]1O)OC(=O)CCCCCCCCCCCCCCCCC (stereo not given in full)
Kd [3]: 0.025 nM

CCCCCCCCCCCCCCCCCC(=O)OCC(O)CO[C@@H]1O[C@H](CS(=O)(=O)O)[C@@H](O)[C@H](O)[C@H]1O (stereo not given in full)
Kd [3]: 16000 nM
